Like-named read-outs stand apart in the source and are kept apart here.
What was measured:
[1] = Fluorescence quantum yield of F1-F3 and D1-D3; assay type: physicochemical
Excerpt: Fluorescence Quantum Yields. […] […] These comparisons indicate the absence of dye-dye quenching resulting from the aggregation for F1 and F2 in μM aqueous solutions. […] Also, a smaller phthalocyanine skeleton (e.g. with methyl instead of heptyl as peripheral groups) may be encapsulated with the current length of copolymer successfully.

[2] = Absorption and emission spectra of dye-loaded copolymers F1-F3 and dyes D1-D3; assay type: physicochemical
Excerpt: Measurements of Absorption and Emission Spectra. The target dye-loaded copolymers F1-F3 were then subject to investigations of their spectroscopic properties in both organic solvents and aqueous solution. […] Attaching to the 120-kDa amphiphilic copolymer drastically enhances the water solubility of BODIPY D1 and chlorin D2 without strong perturbation on the spectroscopic properties. Emission band for F1 and F2 in water remains the same as the ones measured in organic solutions, showing minimal dye-dye interaction is involved in aqueous solution of F1 and F2 at μM concentration. […] This negative result may be because of the inappropriate size of the copolymer backbone. Polymer larger in size may be required to encapsulate large hydrophobic chromophores like the phthalocyanine D3.
General Methods. All chemicals obtained commercially were used as received unless otherwise noted. Reagent-grade solvents (CH2Cl2, THF, methanol) and HPLC-grade water were used as received. NMR data was measured in a solution of CDCl3 unless otherwise noted. Noncommercial compounds 1, 2, and 4 were prepared following literature procedures. Analytical SEC experiments were performed with PLgel 10000 Å SEC column, eluted with ACS grade THF (stabilized with 400 ppm of BHT) at 35° C. with a flow rate at 1 mL/min. Samples were detected with Agilent 1260 infinity refractive index detector. Absorption spectra were measured on Agilent 8453 and Shimadzu UV1800 instruments using dilute (μmolar) solutions of the compound in UV transparent (e.g., quartz) cuvettes versus a solvent blank at room temperature.

[3] = aqueous solution, cited from earlier work
[4] = aqueous solution, Hg(II); cited from earlier work
[5] = solvent CH2Cl2, room temperature
[6] = solvent toluene, room temperature

| Structure (SMILES) | Φf [1, 5] | FWHM [2, 5] [cm⁻¹] | emission maximum wavelength (λem max) [2, 5] [nm] | λabs^max [2, 5] [nm] | other results |
| --- | --- | --- | --- | --- | --- |
| Cc1cc(C)c(C2=C3C=CC=[N+]3[B-](F)(F)n3cc(C#CCCCCC(=O)NN)cc32)c(C)c1 [Compound D1, 2-[6-(N-Aminocarbamoyl)hex-1-yn-1-yl]-8-mesityl-4,4-difluoro-4-bora-3a,4a-diaza-s-indacene] | 0.065 | 1628 | 557 | 543 | – |
| CCCCCCCc1cc2c(cc1CCCCCCC)-c1nc-2nc2[nH]c(nc3nc(nc4[nH]c(n1)c1cc(CCCCCCC)c(CCCCCCC)cc41)-c1cc(C#Cc4ccc(CC(=O)NN)cc4)ccc1-3)c1cc(CCCCCCC)c(CCCCCCC)cc21 [Compound D3, 2-[4-(N-Aminocarbamoyl)methylphenylethynyl]-9,10,16,17,23,24-hexaheptylphthalocyanine] | – | – | – | – | Φf [1, 6]: 0.68; FWHM [2, 6]: 1113 cm⁻¹; emission maximum wavelength (λem max) [2, 6]: 707 nm; λabs^max [2, 6]: 702 nm |
| CCN(CC)c1ccc2c(c1)Oc1cc(N(CC)CC)ccc1C21c2ccccc2C(=O)N1N [Rhodamine-B hydrazide] | – | – | – | – | change in absorption or fluorescence spectra ([3]; Cu(II)): significant change; Cu(II) concentration at which selective detection was highly sensitive and quantitative [3]: 10^−7 M; change in absorption or fluorescence spectra [4]: significant change |
| Cc1cc(C)c(-c2c3nc(c(-c4ccc(C(=O)NN)cc4)c4ccc(cc5nc(cc6ccc2[nH]6)CC5(C)C)[nH]4)C=C3)c(C)c1 [Compound D2, 5-[4-(N-Aminocarbamoyl)phenyl]-10-Mesityl-18,18-dimethylchlorin] | 0.19 | 342 | 641 | 640 | – |

Reference: patent publication US20230086985A1, “POLYMERIC COMPOUNDS INCLUDING AN ACCEPTOR DYE AND DONOR LUMINOPHORE” (North Carolina State University, priority 2019, published 2023)
